Starred links: 1 amine or outer side, 2 acyl side, 3 side chain; linkers in the order of their positions; H or OH if unused. Non-standard residues stand in square brackets, D forms with d. Residues, ends and D or L forms follow the SMILES beside them. *: point of attachment. X5 = O=C(O)c1cc(NC(=S)*)ccc1-c1c2ccc(=O)cc-2oc2cc(O)ccc12; Benzoyl(2,3,4,5,6-F5) = O=C(c1c(F)c(F)c(F)c(F)c1F)*; Benzoyl(2,3-Cl2) = O=C(c1cccc(Cl)c1Cl)*; X3 = CC1(C)SC[C@@H](C(=O)[*:2])N1[*:1]; Cyclohexanecarbonyl = O=C(C1CCCCC1)*; Cyclopentanecarbonyl = O=C(C1CCCC1)*; X7 = O=C(c1cc(F)c(F)c(F)c1F)*; Tle = CC(C)(C)[C@H](N)C(=O)O; X4 = O=C(c1ccc(Br)c(Cl)c1)*; X6 = Cc1ccc(C(=O)*)c(F)c1F; AEEA = NCCOCCOCC(=O)O; Bz = O=C(c1ccccc1)*; βAla = NCCC(=O)O; For = O=C*
Assay: Half life in 25% human serum at 5 uM at 37 degC by HPLC analysis
Type: ADME, cell-free

half-life at 5 µM	SMILES
1 h	CC[C@H](C)[C@H](NC(=O)[C@@H](NC(=O)[C@@H]1CCCN1C(=O)[C@H](Cc1cnc[nH]1)NC(=O)[C@@H]1CCCN1C(=O)CN)C(C)C)C(=O)N[C@H](C(=O)N[C@H](C(=O)N[C@H](C(=O)NCC(=O)N1CCC[C@H]1C(=O)N[C@@H](Cc1cnc[nH]1)C(=O)N[C@@H](CCC(=O)O)C(=O)N[C@@H](CCC(=O)O)C(=O)O)[C@@H](C)O)[C@@H](C)CC)C(C)C
6 h	CC[C@H](C)[C@H](NC(=O)[C@@H](NC(=O)[C@@H](NC(=O)[C@@H](NC(=O)[C@@H]1CCCN1C(=O)[C@H](Cc1cnc[nH]1)NC(=O)[C@@H]1CCCN1C(=O)CN)C(C)(C)C)[C@@H](C)CC)C(C)(C)C)C(=O)N[C@H](C(=O)NCC(=O)N1[C@H](C(=O)N[C@@H](Cc2cnc[nH]2)C(=O)N[C@@H](CCC(=O)O)C(=O)N[C@@H](CCC(=O)O)C(=O)O)CSC1(C)C)[C@@H](C)O (H-GPHP[Tle]I[Tle]ITG[X3]HEE-OH)

Assay: Binding affinity to GST-tagged Calcineurin (unknown origin) incubated for 1 hr by fluorescence polarization assay
Design: species or system Homo sapiens

Kd	SMILES
22 nM	CC[C@H](C)[C@H](NC(=O)[C@@H](NC(=O)c1cccc(Cl)c1Cl)C(C)(C)C)C(=O)N[C@H](C(=O)N[C@H](C(=O)N[C@H](C(=O)N[C@@H](CC(=O)O)C(=O)N[C@@H](CCC(N)=O)C(=O)N[C@@H](Cc1ccc(O)cc1)C(=O)N[C@H](CCCCN)C(=O)NCCC(=O)N[C@@H](CCCCNC(=S)Nc1ccc(-c2c3ccc(=O)cc-3oc3cc(O)ccc23)c(C(=O)O)c1)C(N)=O)[C@@H](C)O)[C@@H](C)CC)C(C)(C)C
4.7 nM	CC[C@H](C)[C@H](NC(=O)[C@@H](NC(=O)c1cccc(Cl)c1Cl)C(C)(C)C)C(=O)N[C@H](C(=O)N[C@H](C(=O)N[C@H](C(=O)N[C@@H](CCC(N)=O)C(=O)N[C@@H](Cc1c[nH]cn1)C(=O)N[C@H](CC(C)C)C(=O)N[C@@H](Cc1c[nH]cn1)C(=O)NCCC(=O)N[C@@H](CCCCNC(=S)Nc1ccc(-c2c3ccc(=O)cc-3oc3cc(O)ccc23)c(C(=O)O)c1)C(N)=O)[C@@H](C)O)[C@@H](C)CC)C(C)(C)C
12 nM	CC[C@H](C)[C@H](NC(=O)[C@@H](NC(=O)c1cccc(Cl)c1Cl)C(C)(C)C)C(=O)N[C@H](C(=O)N[C@H](C(=O)N[C@H](C(=O)N[C@@H](Cc1ccc(O)cc1)C(=O)N[C@H](CCC(=O)O)C(=O)N[C@@H](Cc1ccc(F)cc1)C(=O)N[C@@H](Cc1c[nH]cn1)C(=O)NCCC(=O)N[C@@H](CCCCNC(=S)Nc1ccc(-c2c3ccc(=O)cc-3oc3cc(O)ccc23)c(C(=O)O)c1)C(N)=O)[C@@H](C)O)[C@@H](C)CC)C(C)(C)C
9.1 nM	CC[C@H](C)[C@H](NC(=O)[C@@H](NC(=O)c1cccc(Cl)c1Cl)C(C)(C)C)C(=O)N[C@H](C(=O)N[C@H](C(=O)N[C@H](C(=O)N[C@@H](CCC(N)=O)C(=O)N[C@@H](Cc1c[nH]cn1)C(=O)N[C@H](CC(C)C)C(=O)N[C@@H](CO)C(=O)NCCC(=O)N[C@@H](CCCCNC(=S)Nc1ccc(-c2c3ccc(=O)cc-3oc3cc(O)ccc23)c(C(=O)O)c1)C(N)=O)[C@@H](C)O)[C@@H](C)CC)C(C)(C)C
> 5400 nM	CC[C@H](C)[C@H](NC(=O)[C@@H](NC(C)=O)C(C)(C)C)C(=O)N[C@H](C(=O)N[C@H](C(=O)N[C@H](C(=O)NCC(=O)N1CCC[C@H]1C(=O)N[C@@H](Cc1c[nH]cn1)C(=O)N[C@@H](CCC(=O)O)C(=O)N[C@@H](CCC(=O)O)C(=O)N[C@@H](Cc1ccc(O)cc1)C(=O)N[C@@H](CCCCNC(=S)Nc1ccc(-c2c3ccc(=O)cc-3oc3cc(O)ccc23)c(C(=O)O)c1)C(N)=O)[C@@H](C)O)[C@@H](C)CC)C(C)(C)C (Ac-[Tle]I[Tle]ITGPHEEYK(X5)-NH2)
224 nM	CC[C@H](C)[C@H](NC(=O)[C@@H](NC(=O)c1ccccc1)C(C)(C)C)C(=O)N[C@H](C(=O)N[C@H](C(=O)N[C@H](C(=O)NCC(=O)N1CCC[C@H]1C(=O)N[C@@H](Cc1c[nH]cn1)C(=O)N[C@@H](CCC(=O)O)C(=O)N[C@@H](CCC(=O)O)C(=O)N[C@@H](Cc1ccc(O)cc1)C(=O)N[C@@H](CCCCNC(=S)Nc1ccc(-c2c3ccc(=O)cc-3oc3cc(O)ccc23)c(C(=O)O)c1)C(N)=O)[C@@H](C)O)[C@@H](C)CC)C(C)(C)C (Bz-[Tle]I[Tle]ITGPHEEYK(X5)-NH2)
189 nM	CC[C@H](C)[C@H](NC(=O)[C@@H](NC(=O)c1ccc(Br)c(Cl)c1)C(C)(C)C)C(=O)N[C@H](C(=O)N[C@H](C(=O)N[C@H](C(=O)NCC(=O)N1CCC[C@H]1C(=O)N[C@@H](Cc1c[nH]cn1)C(=O)N[C@@H](CCC(=O)O)C(=O)N[C@@H](CCC(=O)O)C(=O)N[C@@H](Cc1ccc(O)cc1)C(=O)N[C@@H](CCCCNC(=S)Nc1ccc(-c2c3ccc(=O)cc-3oc3cc(O)ccc23)c(C(=O)O)c1)C(N)=O)[C@@H](C)O)[C@@H](C)CC)C(C)(C)C (X4-[Tle]I[Tle]ITGPHEEYK(X5)-NH2)
74 nM	CC[C@H](C)[C@H](NC(=O)[C@@H](NC(=O)c1ccc(C)c(F)c1F)C(C)(C)C)C(=O)N[C@H](C(=O)N[C@H](C(=O)N[C@H](C(=O)NCC(=O)N1CCC[C@H]1C(=O)N[C@@H](Cc1c[nH]cn1)C(=O)N[C@@H](CCC(=O)O)C(=O)N[C@@H](CCC(=O)O)C(=O)N[C@@H](Cc1ccc(O)cc1)C(=O)N[C@@H](CCCCNC(=S)Nc1ccc(-c2c3ccc(=O)cc-3oc3cc(O)ccc23)c(C(=O)O)c1)C(N)=O)[C@@H](C)O)[C@@H](C)CC)C(C)(C)C (X6-[Tle]I[Tle]ITGPHEEYK(X5)-NH2)
32 nM	CC[C@H](C)[C@H](NC(=O)[C@@H](NC(=O)c1cc(F)c(F)c(F)c1F)C(C)(C)C)C(=O)N[C@H](C(=O)N[C@H](C(=O)N[C@H](C(=O)NCC(=O)N1CCC[C@H]1C(=O)N[C@@H](Cc1c[nH]cn1)C(=O)N[C@@H](CCC(=O)O)C(=O)N[C@@H](CCC(=O)O)C(=O)N[C@@H](Cc1ccc(O)cc1)C(=O)N[C@@H](CCCCNC(=S)Nc1ccc(-c2c3ccc(=O)cc-3oc3cc(O)ccc23)c(C(=O)O)c1)C(N)=O)[C@@H](C)O)[C@@H](C)CC)C(C)(C)C (X7-[Tle]I[Tle]ITGPHEEYK(X5)-NH2)
64 nM	CC[C@H](C)[C@H](NC(=O)[C@@H](NC(=O)c1cccc(Cl)c1Cl)C(C)(C)C)C(=O)N[C@H](C(=O)N[C@H](C(=O)N[C@H](C(=O)N[C@@H](CC(=O)O)C(=O)N[C@@H](CCC(N)=O)C(=O)N[C@@H](Cc1ccc(O)cc1)C(=O)N[C@@H](CCCNC(=N)N)C(=O)NCCC(=O)N[C@@H](CCCCNC(=S)Nc1ccc(-c2c3ccc(=O)cc-3oc3cc(O)ccc23)c(C(=O)O)c1)C(N)=O)[C@@H](C)O)[C@@H](C)CC)C(C)(C)C ({Benzoyl(2,3-Cl2)}-[Tle]I[Tle]ITDQYR[βAla]K(X5)-NH2)
41 nM	CC[C@H](C)[C@H](NC(=O)[C@@H](NC(=O)c1cccc(Cl)c1Cl)C(C)(C)C)C(=O)N[C@H](C(=O)N[C@H](C(=O)N[C@H](C(=O)NCC(=O)N1CCC[C@H]1C(=O)N[C@@H](Cc1c[nH]cn1)C(=O)N[C@@H](CCC(=O)O)C(=O)N[C@@H](CCC(=O)O)C(=O)N[C@@H](Cc1ccc(O)cc1)C(=O)N[C@@H](CCCCNC(=S)Nc1ccc(-c2c3ccc(=O)cc-3oc3cc(O)ccc23)c(C(=O)O)c1)C(N)=O)[C@@H](C)O)[C@@H](C)CC)C(C)(C)C ({Benzoyl(2,3-Cl2)}-[Tle]I[Tle]ITGPHEEYK(X5)-NH2)

The next lines start with the molecule.

SMILES	Kd
CC[C@H](C)[C@H](NC(=O)[C@@H](NC(=O)CNC(=O)[C@H](Cc1c[nH]cn1)NC(=O)[C@@H]1CCCN1C(=O)CNC(C)=O)C(C)(C)C)C(=O)N[C@H](C(=O)N[C@H](C(=O)N[C@H](C(=O)NCC(=O)N1CCC[C@H]1C(=O)N[C@@H](Cc1c[nH]cn1)C(=O)N[C@@H](CCC(=O)O)C(=O)N[C@@H](CCC(=O)O)C(=O)N[C@@H](Cc1ccc(O)cc1)C(=O)N[C@@H](CCCCNC(=S)Nc1ccc(-c2c3ccc(=O)cc-3oc3cc(O)ccc23)c(C(=O)O)c1)C(N)=O)[C@@H](C)O)[C@@H](C)CC)C(C)(C)C (Ac-GPHG[Tle]I[Tle]ITGPHEEYK(X5)-NH2)	92 nM
CC[C@H](C)[C@H](NC(=O)[C@@H](NC(=O)C1CCCCC1)C(C)(C)C)C(=O)N[C@H](C(=O)N[C@H](C(=O)N[C@H](C(=O)NCC(=O)N1CCC[C@H]1C(=O)N[C@@H](Cc1c[nH]cn1)C(=O)N[C@@H](CCC(=O)O)C(=O)N[C@@H](CCC(=O)O)C(=O)N[C@@H](Cc1ccc(O)cc1)C(=O)N[C@@H](CCCCNC(=S)Nc1ccc(-c2c3ccc(=O)cc-3oc3cc(O)ccc23)c(C(=O)O)c1)C(N)=O)[C@@H](C)O)[C@@H](C)CC)C(C)(C)C (Cyclohexanecarbonyl-[Tle]I[Tle]ITGPHEEYK(X5)-NH2)	207 nM
CC[C@H](C)[C@H](NC(=O)[C@@H](NC(=O)C1CCCC1)C(C)(C)C)C(=O)N[C@H](C(=O)N[C@H](C(=O)N[C@H](C(=O)NCC(=O)N1CCC[C@H]1C(=O)N[C@@H](Cc1c[nH]cn1)C(=O)N[C@@H](CCC(=O)O)C(=O)N[C@@H](CCC(=O)O)C(=O)N[C@@H](Cc1ccc(O)cc1)C(=O)N[C@@H](CCCCNC(=S)Nc1ccc(-c2c3ccc(=O)cc-3oc3cc(O)ccc23)c(C(=O)O)c1)C(N)=O)[C@@H](C)O)[C@@H](C)CC)C(C)(C)C (Cyclopentanecarbonyl-[Tle]I[Tle]ITGPHEEYK(X5)-NH2)	357 nM
CC[C@H](C)[C@H](NC(=O)[C@@H](NC=O)C(C)(C)C)C(=O)N[C@H](C(=O)N[C@H](C(=O)N[C@H](C(=O)NCC(=O)N1CCC[C@H]1C(=O)N[C@@H](Cc1c[nH]cn1)C(=O)N[C@@H](CCC(=O)O)C(=O)N[C@@H](CCC(=O)O)C(=O)N[C@@H](Cc1ccc(O)cc1)C(=O)N[C@@H](CCCCNC(=S)Nc1ccc(-c2c3ccc(=O)cc-3oc3cc(O)ccc23)c(C(=O)O)c1)C(N)=O)[C@@H](C)O)[C@@H](C)CC)C(C)(C)C (For-[Tle]I[Tle]ITGPHEEYK(X5)-NH2)	> 5800 nM
CC[C@H](C)[C@H](NC(=O)[C@@H](NC(=O)[C@@H](NC(=O)[C@@H](NC(=O)[C@@H]1CCCN1C(=O)[C@H](Cc1cnc[nH]1)NC(=O)[C@@H]1CCCN1C(=O)CN)C(C)(C)C)[C@@H](C)CC)C(C)(C)C)C(=O)N[C@H](C(=O)NCC(=O)N1[C@H](C(=O)N[C@@H](Cc2cnc[nH]2)C(=O)N[C@@H](CCC(=O)O)C(=O)N[C@@H](CCC(=O)O)C(=O)O)CSC1(C)C)[C@@H](C)O (H-GPHP[Tle]I[Tle]ITG[X3]HEE-OH)	2.6 nM
CC[C@H](C)[C@H](NC(=O)[C@@H](NC(=O)c1c(F)c(F)c(F)c(F)c1F)C(C)(C)C)C(=O)N[C@H](C(=O)N[C@H](C(=O)N[C@H](C(=O)NCC(=O)N1CCC[C@H]1C(=O)N[C@@H](Cc1c[nH]cn1)C(=O)N[C@@H](CCC(=O)O)C(=O)N[C@@H](CCC(=O)O)C(=O)N[C@@H](Cc1ccc(O)cc1)C(=O)N[C@@H](CCCCNC(=S)Nc1ccc(-c2c3ccc(=O)cc-3oc3cc(O)ccc23)c(C(=O)O)c1)C(N)=O)[C@@H](C)O)[C@@H](C)CC)C(C)(C)C ({Benzoyl(2,3,4,5,6-F5)}-[Tle]I[Tle]ITGPHEEYK(X5)-NH2)	77 nM
CC[C@H](C)[C@H](NC(=O)[C@@H](NC(=O)c1cccc(Cl)c1Cl)C(C)(C)C)C(=O)N[C@H](C(=O)N[C@H](C(=O)N[C@H](C(=O)NCCOCCOCC(=O)N[C@@H](CCCCNC(=S)Nc1ccc(-c2c3ccc(=O)cc-3oc3cc(O)ccc23)c(C(=O)O)c1)C(N)=O)[C@@H](C)O)[C@@H](C)CC)C(C)(C)C ({Benzoyl(2,3-Cl2)}-[Tle]I[Tle]IT[AEEA]K(X5)-NH2)	700 nM

Reference: ChEMBL document CHEMBL4699579, “A Peptidyl Inhibitor that Blocks Calcineurin-NFAT Interaction and Prevents Acute Lung Injury” (J Med Chem, 2020)
